Measured values reported in the Deep4Chem optical property database.
One block for each compound: values may come before it.

Assay: solvent given as SMILES

SMILES: Cc1cc(-c2nnc(-c3ccccc3)o2)ccc1-n1c2ccccc2c2ccccc21
emission maximum (in CCO): 445 nm
emission maximum (in Cc1ccccc1): 382 nm

SMILES: CC(C)(C)c1ccc(-c2nnc(-c3c(-n4c5ccccc5c5ccccc54)c(-n4c5ccccc5c5ccccc54)c(-n4c5ccccc5c5ccccc54)c(-n4c5ccccc5c5ccccc54)c3-n3c4ccccc4c4ccccc43)o2)cc1
emission maximum (in Cc1ccccc1): 482 nm

SMILES: CCN(CC)c1ccc2cc(-c3ccc(S(C)(=O)=O)cc3)oc(=O)c2c1
emission maximum (in CC(C)=O): 487 nm
emission maximum (in CCCCCC): 419 nm
emission maximum (in CCCCO): 476 nm
emission maximum (in CCCO): 480 nm
emission maximum (in CCO): 485 nm
emission maximum (in CCOC(C)=O): 465 nm
emission maximum (in CN(C)C=O): 499 nm
emission maximum (in CO): 489 nm
emission maximum (in ClC(Cl)Cl): 456 nm

SMILES: CC(C)c1cccc(C(C)C)c1N1C(=O)c2cc(Cl)c3c4c(Cl)cc5c6c(cc(Cl)c(c7c(Cl)cc(c2c37)C1=O)c64)C(=O)N(c1c(C(C)C)cccc1C(C)C)C5=O
emission maximum (in Cc1ccccc1): 552 nm

SMILES: CC(C)(C)c1ccc2c(c1)c1cc(C(C)(C)C)ccc1n2-c1nc2ccccc2nc1-n1c2ccc(C(C)(C)C)cc2c2cc(C(C)(C)C)ccc21
emission maximum (in C1CCOC1): 544.34 nm
emission maximum (in CCCCCC): 488.69 nm
emission maximum (in Cc1ccccc1): 527 nm

SMILES: c1ccc(-c2nc(-c3ccccc3)nc(-c3ccccc3-n3c4ccccc4c4c5oc6ccccc6c5ccc43)n2)cc1
emission maximum (in C1CCCCC1): 438.08 nm
emission maximum (in C1CCOC1): 492.26 nm
emission maximum (in Cc1ccccc1): 474.61 nm
emission maximum (in O=P(c1ccccc1)(c1ccccc1)c1ccccc1Oc1ccccc1P(=O)(c1ccccc1)c1ccccc1): 456.95 nm

SMILES: O=C(O)COc1ccc2[nH]c3c(c2c1)CCCC3=O
emission maximum (in C1CCOC1): 419.81 nm
emission maximum (in C1COCCO1): 404.04 nm
emission maximum (in CC#N): 419.23 nm
emission maximum (in CCCCCCCCCCCCO): 449.42 nm
emission maximum (in CCCCCCCCCCO): 449.81 nm
emission maximum (in CCCCCCCCO): 456.15 nm
emission maximum (in CCCCCCO): 469.04 nm
emission maximum (in CCCCO): 464.23 nm
emission maximum (in CCO): 472.12 nm
emission maximum (in CCOC(C)=O): 410 nm
emission maximum (in CN(C)C=O): 430 nm
emission maximum (in CO): 491.73 nm
emission maximum (in CS(C)=O): 426.92 nm
emission maximum (in Cc1ccccc1): 400.96 nm
emission maximum (in O): 507.69 nm
emission maximum (in c1ccccc1): 399.81 nm

SMILES: COc1ccc(-n2nc(C#N)c(N3CCCC3)n2)cc1OC
emission maximum (in CC#N): 417 nm

SMILES: C(S/C=C/c1ccc(/C=C/SC=C2CCCCC2)cc1)=C1CCCCC1
emission maximum (in ClCCl): 421 nm

SMILES: Cc1cc(C)c(B(c2c(C)cc(C)cc2C)N2c3ccccc3C3(c4ccccc4-c4ccccc43)c3ccccc32)c(C)c1
emission maximum (in C1CCCCC1): 527 nm
emission maximum (in Cc1ccccc1): 538 nm
emission maximum (in ClCCl): 560 nm

SMILES: O=c1c(Nc2ccccc2)c([O-])c1=[NH+]c1ccccc1
emission maximum (in C1CCOC1): 477 nm
emission maximum (in CC#N): 496 nm
emission maximum (in CC(C)=O): 490 nm
emission maximum (in CCO): 492 nm
emission maximum (in CCOCC): 484 nm
emission maximum (in CN1CCCC1=O): 495 nm
emission maximum (in CN(C)C=O): 502 nm
emission maximum (in CO): 498 nm
emission maximum (in CS(C)=O): 504 nm
emission maximum (in O): 504 nm

SMILES: CCCCCCn1c2c(c3cc(-c4ccc5ccc6cccc7ccc4c5c67)ccc31)-c1c(c3cc(-c4ccc5ccc6cccc7ccc4c5c67)ccc3n1CCCCCC)-c1c(c3cc(-c4ccc5ccc6cccc7ccc4c5c67)ccc3n1CCCCCC)-c1c-2c2cc(-c3ccc4ccc5cccc6ccc3c4c56)ccc2n1CCCCCC
emission maximum (in ClCCl): 382 nm

SMILES: CCCCCCCCOC(=O)c1cc2ccc3ccccc3c2c(C#N)c1N
emission maximum (in Cc1ccccc1): 467 nm

SMILES: C[Si](C)(C)c1sc([Si](C)(C)C)c2c1sc1c2sc2sc3sc4c(sc5c([Si](C)(C)C)sc([Si](C)(C)C)c54)c3c21
emission maximum (in ClC(Cl)Cl): 360 nm

SMILES: CC1=C(c2cccs2)C(C)=[N+]2C1=C(c1ccc(O)cc1)c1c(C)c(-c3cccs3)c(C)n1[B-]2(F)F
emission maximum (in CO): 602 nm
emission maximum (in Cc1ccccc1): 604 nm
emission maximum (in ClCCl): 605 nm

Results, then the compound that gave them:

emission maximum (in CO): 580 nm
emission maximum (in OCC(O)CO): 581 nm
emission maximum (in OCCO): 583 nm
emission maximum (in Oc1ccccc1): 581 nm
SMILES: CN(CCO)c1ccc(/N=N/c2ccc([N+](=O)[O-])cc2)cc1

emission maximum (in C1CCOC1): 460 nm
SMILES: CC(C)(C)/C=C1\C=C(c2ccccc2)C=C1c1ccccc1

emission maximum (in ClC(Cl)Cl): 542 nm
SMILES: CCCCN1C(=O)c2ccc3c4c(Br)cc5c6c(ccc(c7c(Br)cc(c2c37)C1=O)c64)C(=O)N(CCCC)C5=O

emission maximum (in CC#N): 749 nm
emission maximum (in CCO): 741 nm
emission maximum (in CO): 744 nm
emission maximum (in ClC(Cl)Cl): 748 nm
SMILES: CCNc1cc2c(cc1C)C(c1ccccc1C(=O)O)=C1CCCC(/C=C/C3=[N+](C)c4ccc5ccccc5c4C3(C)C)=C1O2

emission maximum (in C1CCOC1): 460 nm
SMILES: N#Cc1c(N2CCCCC2)cc(-c2ccc3ccc4cccc5ccc2c3c45)c2c1-c1ccccc1C2

emission maximum (in CC#N): 586 nm
SMILES: CN(C)c1ccc(-n2c(-c3ccc(C#N)cc3)nc3ccccc32)cc1

emission maximum (in C1CCOC1): 497.22 nm
SMILES: CCN(CC)c1ccc(-c2nc3c(nc2-c2ccc([B-](F)(c4c(C)cc(C)cc4C)c4c(C)cc(C)cc4C)cc2)c2ccccc2n3C)cc1

emission maximum (in CC#N): 516 nm
emission maximum (in CCCCCC): 524 nm
emission maximum (in CO): 521 nm
emission maximum (in ClC(Cl)Cl): 527 nm
emission maximum (in ClCCl): 522 nm
SMILES: CC1=CC(C)=[N+]2C1=C(c1ccc3cccnc3n1)c1c(C)cc(C)n1[B-]2(F)F

emission maximum (in ClCCl): 500 nm
SMILES: C(=C\c1ncc(-c2ccc(OCc3ccccc3)c(OCc3ccccc3)c2)o1)/c1cccc(N2CCN(c3ccccc3)CC2)c1

emission maximum (in C1CCOC1): 469 nm
emission maximum (in CC#N): 485 nm
emission maximum (in CO): 488 nm
emission maximum (in ClCCl): 472 nm
SMILES: C(=C\c1nc2ccccc2s1)/c1ccc(-c2nc3c4cccnc4c4ncccc4c3[nH]2)cc1

emission maximum (in ClCCl): 489 nm
SMILES: C(=C\c1cc(-c2ccc3ccccc3c2)c(/C=C/c2ccc(N(c3ccccc3)c3ccccc3)cc2)cc1-c1ccc2ccccc2c1)/c1ccc(N(c2ccccc2)c2ccccc2)cc1

emission maximum (in ClCCl): 524 nm
SMILES: CC1=C(c2ccc(N(C)C)cc2)C(C)=[N+]2C1=C(c1c(-c3ccccn3)nc3ccccn13)c1c(C)cc(C)n1[B-]2(F)F

emission maximum (in C1CCCCC1): 568 nm
SMILES: c1ccc(-c2cc3cccc[n+]3[b-]3ccc(-c4cc[b-]5c(c4)c(-c4ccccc4)cc4cccc[n+]54)cc32)cc1

emission maximum (in CC#N): 390 nm
emission maximum (in CCCCOCCCC): 388 nm
emission maximum (in CO): 388 nm
SMILES: COc1nc(Nc2ccc3ccc4cccc5ccc2c3c45)nc(OC)n1

emission maximum (in ClCCl): 498 nm
SMILES: CCN(CC)c1ccc2cc(-c3nc4cc(C(=O)Nc5ccccc5[N+](=O)[O-])ccc4o3)c(=O)oc2c1

emission maximum (in CO): 464 nm
emission maximum (in ClCCl): 502 nm
SMILES: CCCCCCN(CCCCCC)c1ccc(C#Cc2c(F)c(F)c(F)c(F)c2F)cc1

emission maximum (in ClCCl): 454 nm
SMILES: C1=Cc2ccc(N(c3ccccc3)c3cccc4ccccc34)cc2C2(c3cc(N(c4ccccc4)c4cccc5ccccc45)ccc31)c1ccccc1-c1ccccc12

emission maximum (in C1CCCCC1): 360 nm
SMILES: COc1ccc(-c2ccc(-c3ccc(OC)cc3)cc2)cc1

emission maximum (in ClCCl): 419 nm
SMILES: CC(C)(C)NC(=O)c1cc2ccccc2c2ccc3c4ccccc4c4ccccc4c3c12

emission maximum (in C1CCOC1): 451.19 nm
SMILES: CC[NH+](CC)c1ccc(-c2nc3c4ccccc4n(C)c3nc2-c2ccc(B(c3c(C)cc(C)cc3C)c3c(C)cc(C)cc3C)cc2)cc1

emission maximum (in C1CCCCC1): 348 nm
SMILES: CC(C)(C)c1ccc2c(c1)Cc1cc(C(C)(C)C)ccc1-2

emission maximum (in ClCCl): 556 nm
emission maximum (in c1ccccc1): 506 nm
SMILES: CCCCN(CCCC)c1ccc(C#Cc2cc(C#Cc3cc(C(F)(F)F)cc(C(F)(F)F)c3)c(C#Cc3cc(C(F)(F)F)cc(C(F)(F)F)c3)cc2C#Cc2ccc(N(CCCC)CCCC)cc2)cc1
